For one test, the system named is HCV GT1b replicon. As to the kind of experiment: HCV replicon assay, genotype 1b, in Huh-7 cells. It counts as cell-based. The conditions noted are these: Hepatitis C virus; Huh-7 cells stably transfected with HCV GT1b replicon, 72 hours incubation; luciferase or NEO gene qPCR readout; read-out: EC50 against HCV 1b genotype. How it is done:
(§1) HCV Replicon System was utilized as a screening model in the present disclosure to evaluate the antivirus effects of the compounds disclosed herein against HCV. HCV Replicon assay was first described in Science, 1999, 285 (5424), 110-3. […] To determine the potential anti-HCV effects of the test compounds, luciferase assay and antibiotic Neomycin resistance gene were tested according to the method described in Science. 1999 Jul. 2; 285 (5424), 110-3 and J. Virol. 2003 March; 77 (5), 3007-19.
(§2) In a word, the compounds disclosed herein were tested by using human hepatic carcinoma cell line Huh-7 which is transfected stably with HCV GT1a, GT1b or GT2a replicon respectively, and resistant cells of Y93H, L31F, P32L or I302V and wild-type cells HCV 1b. HCV Replicon System disclosed herein contains G418 resistance gene NEO and Luciferase Reporter Gene, and the level of HCV replication in host cells is detected and characterized by the expression level of the NEO gene or Luciferase Reporter Gene, so the effects of the compounds herein inhibit HCV replication can be evaluated in this system. In this article, a real-time quantitative polymerase chain reaction (qPCR) method was used to detect NEO gene expression level, and chemiluminescence method was used to test Luciferase Reporter Gene expression level.
(§3) The Huh-7 cells transfected with HCV replicons system were seeded into 96-well plates (8,000 cells in 125 μL/well) respectively; each test compound was diluted to desired concentration using 5-fold serial dilutions protocol, 10 doses in duplicate (initial concentration for 10 nM) and added to wells with POD™ 810 Plate Assembler. The plates were incubated in a CO2 incubator for 72 hours; after that, 40 μL of Luciferase assay substrate (Promega Bright-Glo) was added to each well, and detected by a chemiluminescence detection system (Topcount Microplate Scintillation and Luminescence Counter) 5 minutes later; the EC50 (half-maximal effective concentration, concentration for 50% of maximal effect) values of test compounds were analyzed by GraphPad Prism software. In this paper, experiments were repeated twice and set the wells without compounds as negative control.
as §3, with “hours;” for “hours; after that, 40 μL of Luciferase assay substrate (Promega Bright-Glo) was added to each well,”, “the expression level of the NEO gene expression with real-time quantitative PCR” for “by a chemiluminescence detection system (Topcount Microplate Scintillation and Luminescence Counter) 5 minutes”, “software, respectively.” for “software.”

The subject of a further test is HCV GT1a replicon. As to the kind of experiment: HCV replicon assay, genotype 1a, in Huh-7 cells. It counts as cell-based. The conditions noted are these: Hepatitis C virus; Huh-7 cells stably transfected with HCV GT1a replicon, 72 hours incubation; luciferase or NEO gene qPCR readout; read-out: EC50 against HCV 1a genotype. The procedure:
as §1, §2, §3
as §3, with “hours;” for “hours; after that, 40 μL of Luciferase assay substrate (Promega Bright-Glo) was added to each well,”, “the expression level of the NEO gene expression with real-time quantitative PCR” for “by a chemiluminescence detection system (Topcount Microplate Scintillation and Luminescence Counter) 5 minutes”, “software, respectively.” for “software.”
In general terms: Replicon systems follow genome replication, usually without infectious particles.

What is called EC50 is the concentration needed to bring the measured effect to its halfway point. As for `COC(=O)N[C@H](C(=O)N1[C@@H](C)CC[C@H]1c1nc2ccc(-c3ccc(-c4ccc(-c5cnc([C@@H]6C[C@@H]7CCC[C@@H]7N6C(=O)[C@@H](NC(=O)OC)[C@@H](C)OC)[nH]5)cc4)c4c3C3CCC4C3)cc2[nH]1)C(C)C` (stereo partly shown) [Example 11], the EC50 in the test with HCV GT1b replicon came out at 12 pM; in the test with HCV GT1a replicon, 0.235 nM.

For `COC(=O)N[C@H](C(=O)N1C[C@@H](C)C[C@H]1c1ncc(-c2ccc(-c3ccc(-c4ccc5nc([C@@H]6CC[C@H](C)N6C(=O)[C@@H](NC(=O)OC)C6CCOCC6)[nH]c5c4)c4c3C3CCC4C3)cc2)[nH]1)C(C)C` (stereo partly shown) [Example 7], the concentration giving a half-maximal response (EC50) in the test on HCV GT1b replicon amounted to 5 pM; with HCV GT1a replicon, 0.087 nM.

With `CC[C@H]1CC[C@@H](c2nc3ccc(-c4ccc(-c5ccc(-c6cnc([C@@H]7C[C@H](C)CN7C(=O)[C@@H](NC(=O)OC)C(C)C)[nH]6)cc5)c5c4C4CCC5C4)cc3[nH]2)N1C(=O)[C@@H](NC(=O)OC)C(C)C` (stereo partly shown) [Example 8], the 50% effective concentration (EC50) in the test on HCV GT1b replicon worked out at 9 pM; with HCV GT1a replicon, 0.063 nM.

`COC(=O)N[C@H](C(=O)N1C[C@@H](C)C[C@H]1c1ncc(-c2ccc(-c3ccc(-c4ccc5nc([C@@H]6CC[C@H](C)N6C(=O)[C@H](NC(=O)OC)c6ccccc6)[nH]c5c4)c4c3C3CCC4C3)cc2)[nH]1)C(C)C` (stereo partly shown) [Example 6]: the figures for the concentration giving a half-maximal response (EC50) in the test on HCV GT1b replicon and with HCV GT1a replicon were 6 pM and 0.032 nM, respectively.

As for `COC(=O)N[C@H](C(=O)N1C(c2ncc(-c3ccc(-c4ccc(-c5ccc6nc([C@@H]7CC[C@H](C)N7C(=O)[C@@H](NC(=O)OC)C(C)C)[nH]c6c5)c5c4C4CCC5C4)cc3)[nH]2)CC[C@@H]1C)C(C)C` (stereo partly shown) [Example 3], the EC50 in the test on HCV GT1b replicon came out at 5 pM; with HCV GT1a replicon, 0.008 nM.

Consider `COC(=O)NC(C(=O)N1C[C@@H](C)CC1c1ncc(-c2ccc(-c3ccc(-c4ccc5nc([C@@H]6CC[C@H](C)N6C(=O)[C@@H](NC(=O)OC)C(C)C)[nH]c5c4)c4c3C3CCC4C3)cc2)[nH]1)c1ccccc1` (stereo partly shown) [Example 5], for which the half-maximal effective concentration (EC50) in the test on HCV GT1b replicon turned out to be 7 pM; in the test with HCV GT1a replicon it was 0.098 nM.

For the compound `COC(=O)N[C@H](C(=O)N1C[C@@H](C)CC1c1ncc(-c2ccc(-c3ccc(-c4ccc5nc([C@@H]6CC[C@H](C)N6C(=O)[C@@H](NC(=O)OC)C(C)C)[nH]c5c4)c4c3C3CCC4C3)cc2)[nH]1)C(C)C` (stereo partly shown) [Example 4], the concentration for a half-maximal effect (EC50) came to 5 pM in the test with HCV GT1b replicon and 0.131 nM in the test with HCV GT1a replicon.

Consider `COC[C@H]1C[C@@H](c2ncc(-c3ccc(-c4ccc(-c5ccc6nc([C@@H]7CC[C@H](C)N7C(=O)[C@@H](NC(=O)OC)C(C)C)[nH]c6c5)c5c4C4CCC5C4)cc3)[nH]2)N(C(=O)[C@@H](NC(=O)OC)C(C)C)C1` (stereo partly shown) [Example 9], for which the results for the half-maximal effective concentration (EC50) with HCV GT1b replicon and with HCV GT1a replicon were 8 pM and 0.123 nM, respectively.

As to `COC(=O)N[C@H](C(=O)N1C[C@@H](C)C[C@H]1c1nc2ccc(-c3ccc(-c4ccc(-c5cnc(C6CC[C@H](C)N6C(=O)[C@@H](NC(=O)OC)C(C)C)[nH]5)cc4)c4c3C3CCC4C3)cc2[nH]1)C(C)C` (stereo partly shown) [Example 2], the EC50 in the test with HCV GT1b replicon was 4 pM; in the test with HCV GT1a replicon, 0.004 nM.

With `COC(=O)N[C@H](C(=O)N1C(c2ncc(-c3ccc(-c4ccc(-c5cnc([C@@H]6CC[C@H](C)N6C(=O)[C@@H](NC(=O)OC)C(C)C)[nH]5)c5c4C4CCC5C4)cc3)[nH]2)CC[C@@H]1C)C(C)C` (stereo partly shown) [Example 1], the half-maximal effective concentration (EC50) in the test with HCV GT1b replicon came to 4 pM; with HCV GT1a replicon it was 0.019 nM.

As for `CCC(C)[C@H](NC(=O)OC)C(=O)N1C[C@@H](CC)C[C@H]1c1ncc(-c2ccc(-c3ccc(-c4ccc5nc([C@@H]6CC[C@H](C)N6C(=O)[C@@H](NC(=O)OC)C(C)C)[nH]c5c4)c4c3C3CCC4C3)cc2)[nH]1` (stereo partly shown) [Example 10], the half-maximal effective concentration (EC50) came to 9 pM with HCV GT1b replicon and 0.057 nM with HCV GT1a replicon.

Source of the values: patent US9738629B2, “Bridged ring compounds as Hepatitis C virus inhibitors, pharmaceutical compositions and uses thereof” (SUNSHINE LAKE PHARMA CO., LTD., priority 2014, dated 2017).
